Reference: ChEMBL document CHEMBL4261582, “Natural products as inhibitors of Leishmania major dihydroorotate dehydrogenase” (Eur J Med Chem, 2018)

Tests used:
[1] = biological target: T1, Dihydroorotate dehydrogenase (fumarate) (Leishmania major, UniProt Q4QEW7); experiment: Inhibition of recombinant oligo-histidine-tagged Leishmania major DHODH expressed in Escherichia coli BL21(DE3) cells using DHO as substrate measured after 60 secs
T1 sequence (Q4QEW7 whole entry): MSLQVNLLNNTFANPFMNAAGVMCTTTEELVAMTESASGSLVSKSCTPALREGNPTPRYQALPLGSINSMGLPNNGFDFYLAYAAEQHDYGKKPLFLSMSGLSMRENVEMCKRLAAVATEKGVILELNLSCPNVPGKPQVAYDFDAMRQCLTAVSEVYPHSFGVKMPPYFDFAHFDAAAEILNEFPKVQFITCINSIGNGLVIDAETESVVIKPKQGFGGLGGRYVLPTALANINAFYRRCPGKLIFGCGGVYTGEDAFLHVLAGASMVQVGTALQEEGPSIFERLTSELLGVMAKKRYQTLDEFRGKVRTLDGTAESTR

[2] = system: Leishmania donovani; experiment: Antileishmanial activity against Leishmania donovani MHOM/ET/67/L82 amastigotes after 72 hrs by Alamar Blue assay; assay type: functional, organism-based; details: MHOM/ET/67/L82, 72 h
[3] = system: Trypanosoma cruzi; experiment: Antitrypanosomal activity against Trypanosoma cruzi Tulahuen C2C4 trypomastigotes infected in rat skeletal myoblasts L-6 cells after 96 hrs by CPRG/Nonidet reagent based spectrophotometric method; assay type: functional, organism-based; details: Tulahuen C2C4, L6, 96 h
[4] = system: Trypanosoma brucei rhodesiense; experiment: Antitrypanosomal activity against Trypanosoma brucei rhodesiense STIB 900 trypomastigotes after 72 hrs by Alamar Blue assay; assay type: functional, organism-based; details: STIB 900, 72 h
[5] = system: Leishmania amazonensis; experiment: Antileishmanial activity against Leishmania amazonensis MHOM/77BR/LTB0016 promastigotes after 72 hrs by MTT assay; assay type: functional, organism-based; details: MHOM/77BR/LTB0016, 72 h
[6] = system: Leishmania amazonensis; experiment: Antileishmanial activity against Leishmania amazonensis MHOM/77BR/LTB0016 amastigotes infected in mouse peritoneal macrophages after 48 hrs by Giemsa staining-based assay; assay type: functional, organism-based; details: MHOM/77BR/LTB0016, 48 h
[7] = biological target: Dihydroorotate dehydrogenase (quinone), mitochondrial (Homo sapiens) (UniProt Q02127); experiment: Inhibition of human DHODH at 100 uM
[8] = biological target: T2, Dihydroorotate dehydrogenase (fumarate) (Leishmania major) (UniProt Q4QEW7); experiment: Inhibition of recombinant oligo-histidine-tagged Leishmania major DHODH expressed in Escherichia coli BL21(DE3) cells at 100 uM using DHO as substrate measured after 60 secs
T2 sequence (whole entry): T1 sequence (Q4QEW7 whole entry)

[9] = system: Leishmania braziliensis; experiment: Antileishmanial activity against Leishmania braziliensis H3227 MHOM/BR/94/H-3227 promastigotes after 72 hrs by MTT assay; assay type: functional, organism-based; details: H3227 MHOM/BR/94/H-3227, 72 h
[10] = biological target: T2, Dihydroorotate dehydrogenase (fumarate) (Leishmania major); experiment: Binding affinity to Leishmania major DHODH assessed as change in melting temperature at 100 uM by differential scanning fluorimetry-based ThermoFMN assay
[11] = biological target: T2, Dihydroorotate dehydrogenase (fumarate) (Leishmania major); experiment: Binding affinity to Leishmania major DHODH assessed as change in melting temperature at 500 uM by differential scanning fluorimetry-based ThermoFMN assay
[12] = biological target: T2, Dihydroorotate dehydrogenase (fumarate) (Leishmania major); experiment: Binding affinity to Leishmania major DHODH assessed as change in melting temperature at 1000 uM by differential scanning fluorimetry-based ThermoFMN assay
[13] = biological target: T2, Dihydroorotate dehydrogenase (fumarate) (Leishmania major); experiment: Binding affinity to Leishmania major DHODH assessed as change in melting temperature at 100 uM by SYPRO orange dye-based differential scanning fluorimetry
[14] = biological target: T2, Dihydroorotate dehydrogenase (fumarate) (Leishmania major); experiment: Binding affinity to Leishmania major DHODH assessed as change in melting temperature at 500 uM by SYPRO orange dye-based differential scanning fluorimetry
[15] = biological target: T2, Dihydroorotate dehydrogenase (fumarate) (Leishmania major); experiment: Binding affinity to Leishmania major DHODH assessed as change in melting temperature at 1000 uM by SYPRO orange dye-based differential scanning fluorimetry
[16] = system: Leishmania amazonensis; experiment: Antileishmanial activity against Leishmania amazonensis WHOM/BR/75/Josefa promastigotes after 72 hrs by Neubauer chamber method; assay type: functional, organism-based
[17] = system: Leishmania amazonensis; experiment: Antileishmanial activity against Leishmania amazonensis WHOM/BR/75/Josefa amastigotes after 72 hrs by Neubauer chamber method; assay type: functional, organism-based

Dihydroorotate dehydrogenase (quinone), mitochondrial (Homo sapiens), sequence (Q02127 whole entry): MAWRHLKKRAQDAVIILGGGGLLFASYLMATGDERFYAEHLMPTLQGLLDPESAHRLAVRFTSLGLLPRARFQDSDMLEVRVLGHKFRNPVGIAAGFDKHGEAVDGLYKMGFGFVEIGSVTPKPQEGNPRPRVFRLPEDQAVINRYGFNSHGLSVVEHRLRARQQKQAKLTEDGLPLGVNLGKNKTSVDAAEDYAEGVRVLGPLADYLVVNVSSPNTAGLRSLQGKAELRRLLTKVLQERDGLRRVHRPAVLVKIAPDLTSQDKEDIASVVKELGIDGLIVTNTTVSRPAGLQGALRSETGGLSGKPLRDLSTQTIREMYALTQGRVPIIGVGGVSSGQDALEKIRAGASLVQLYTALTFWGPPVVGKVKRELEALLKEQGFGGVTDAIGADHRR

Structure (SMILES) | IC50 ([1]; read-out: IC50) | IC50 [2] | IC50 [3] | IC50 [4] | also measured
O=c1ccc2ccc(O)cc2o1 [UMBELLIFERONE] | 467 µM | 172 µM | 555 µM | 319 µM | 
COc1cc(/C=C/C(=O)O)ccc1O [FERULATE] | 413 µM | 155 µM | 155 µM | 428 µM | IC50 [5]: 1.7 µM; IC50 [6]: 7.9 µM
C=C1C(=O)O[C@@H]2/C=C(/C)C(=O)[C@@H]3O[C@H]3[C@](C)(O)C[C@@H](OC(=O)C(C)C)[C@@H]12 | 103 µM |  |  |  | inhibition [7]: 12%; inhibition [8]: 42%; IC50 [9]: 6 µM
CC[C@@H](C)[C@@]1(O)O[C@H]2C[C@@]3(C)OC(=CC3=O)/C(CO)=C\[C@H]3OC(=O)[C@@]1(C)[C@H]23 | 985 µM |  |  |  | IC50 ([1]; read-out: pIC50 (converted)): 794 µM; ΔTm [10]: -0.15 °C; ΔTm [11]: -0.32 °C; ΔTm [12]: -0.61 °C; ΔTm [13]: -0.13 °C; ΔTm [14]: -0.96 °C; ΔTm [15]: -1.83 °C
C=C(C)C(=O)O[C@@H]1C[C@](C)(O)[C@@H]2C(=O)C=C(C)[C@@H]2[C@H]2OC(=O)C(=C)[C@@H]21 | 662 µM |  |  |  | 
COc1ccc(-c2oc3cc(O)cc(O)c3c(=O)c2O)cc1O [TAMARIXETIN] | 93.7 µM | 53.1 µM | 20.2 µM | 46.8 µM | inhibition [7]: 29%; inhibition [8]: 46%
C=C1CC[C@H]2[C@@](C)(CCC[C@@]2(C)C(=O)O)[C@@H]1CCc1ccoc1 | 2620 µM |  |  |  | 
C=C1C(=O)O[C@@H]2C[C@H](C)[C@@]3(O)C[C@H](O)[C@@](C)(C[C@@H](OC(=O)C(C)C)[C@@H]12)O3 [TAGITININ A] | 796 µM |  |  |  | ΔTm [10]: -0.26 °C; ΔTm [11]: -0.32 °C; ΔTm [12]: -0.52 °C; ΔTm [13]: -0.07 °C; ΔTm [14]: -0.06 °C; ΔTm [15]: -0.19 °C; IC50 [9]: 20.4 µM
O=c1cc(-c2ccc(O)cc2)oc2cc(O[C@@H]3O[C@H](CO)[C@@H](O)[C@H](O)[C@H]3O)cc(O)c12 [APIGETRIN] | 105 µM | 4.86 µM | 69.4 µM | 52.5 µM | inhibition [7]: 10%; inhibition [8]: 47%
CC[C@@H](C)[C@@]1(O)O[C@H]2C[C@@]3(C)OC(=CC3=O)/C(COC(C)=O)=C\[C@H]3OC(=O)[C@@]1(C)[C@H]23 | 1200 µM |  |  |  | ΔTm [10]: -0.41 °C; ΔTm [11]: -0.65 °C; ΔTm [12]: -0.76 °C; ΔTm [13]: -0.86 °C; ΔTm [14]: -1.8 °C; ΔTm [15]: -1.39 °C
C/C=C(/C)[C@@]1(O)O[C@H]2C[C@@]3(C)OC(=CC3=O)/C(C)=C\[C@H]3OC(=O)[C@@]1(C)[C@H]23 | 346 µM |  |  |  | 
C=C1CC[C@H]2[C@@](C)(CCC[C@@]2(C)C(=O)O)[C@@H]1CC/C(C)=C/C(=O)O | 707 µM |  |  |  | IC50 [16]: 83.7 to 111 µM; IC50 [17]: 47.4 to 50.8 µM
O=C(/C=C/c1ccc(O)c(O)c1)O[C@@H]1CC(O)(C(=O)O)C[C@@H](OC(=O)/C=C/c2ccc(O)c(O)c2)C1O (some centres not stated) | 1280 µM |  |  |  | 
O=C(O)c1ccc(O)c(O)c1 [PROTOCATECHUIC ACID] | 922 µM |  |  | 112 µM | 
O=C(O)/C=C/c1ccc(O)c(O)c1 [CAFFEIC ACID] | 1750 µM | 31.1 µM | 167 µM | 6.11 µM | IC50 [5]: 5.2 µM; IC50 [6]: 16 µM
O=C(O)/C=C/c1ccccc1O [O-COUMARIC ACID] | 806 µM | 36.6 µM | 183 µM | 265 µM | IC50 [6]: 13.8 µM
C=C1C(=O)O[C@@H]2/C=C(/CO)C3=CC(=O)[C@@](C)(C[C@@H](OC(=O)/C(C)=C/C)[C@@H]12)O3 [BUDLEIN A] | 263 µM |  |  |  | 
C=C1C(=O)O[C@@H]2/C=C(/C)C3=CC(=O)[C@@](C)(C[C@@H](OC(=O)/C(C)=C/C)[C@@H]12)O3 [ATRIPLICIOLIDTIGLATE] | 872 µM |  |  |  | ΔTm [10]: -0.35 °C; ΔTm [11]: -0.85 °C; ΔTm [12]: -1.21 °C; ΔTm [13]: -0.47 °C; ΔTm [14]: -2.52 °C; ΔTm [15]: -5.97 °C
C[C@@H]1O[C@@H](OC[C@H]2O[C@@H](Oc3c(-c4ccc(O)c(O)c4)oc4cc(O)cc(O)c4c3=O)[C@H](O)[C@@H](O)[C@@H]2O)[C@H](O)[C@H](O)[C@H]1O [RUTIN] | 1530 µM | 49.1 µM | 49.1 µM | 6.9 µM | IC50 [6]: 4.4 µM
